In US20220226480A1, “LIPID CONJUGATE PREPARED FROM SCAFFOLD MOIETY” (Integrated Nanotherapeutics Inc., priority 2019, published 2022):

Tests used:
[1] = Particle size and polydispersity of LNP containing pro-drug (dynamic light scattering); format: physicochemical; parameters: Size of LNP: unit not given here; conditions: for Particle Diameter (nm) / Polydispersity index (PDI): LNP containing 10 mol % conjugate, primary PC-lipid DMPC
Method: (§1) LNPs were prepared by dissolving 1,2-Distearoyl-sn-glycero-3-phosphocholine (DSPC) or 1,2-dimyristoyl-sn-glycero-3-phosphocholine (DMPC), cholesterol and 1,2-Distearoyl-sn-glycero-3-phosphoethanolamine-Poly(ethylene glycol) (PEG-DSPE) in ethanol. DSPC, DMPC and PEG-DSPE were purchased from Avanti Polar Lipids (Alabaster, Ala.), and cholesterol was obtained from Sigma (St Louis, Mo.).
(§2) Drug-lipid-conjugates INT-D034, INT-D035, INT-D045, INT-D046, INT-D047, INT-D048, INT-D049, INT-D050, INT-D051, INT-D053, INT-D060, INT-D061, INT-D062, INT-D063, INT-D083, INT-D085, INT-D086, INT-D088 and INT-D089 (see FIG. 3 and Example 7 for structures) were dissolved in isopropanol or THF. LNP were prepared by rapidly mixing DSPC or DMPC, cholesterol, drug-lipid conjugate, and PEG-DSPE (in molar ratio of 49/40/10/1) with phosphate-buffered saline (PBS) using a cross-junction mixer. Formulations were dialyzed against PBS to remove residual ethanol. In formulation$ with more than 10 mol % drug-lipid conjugates, the amount of phospholipid or cholesterol was reduced accordingly.
(§3) The physiochemical properties of the LNPs prepared as described above were subsequently characterized. Particle size was determined by dynamic light scattering using a Malvern Zetasizer Nano ZS (Malvern, UK) following buffer exchange into phosphate-buffered saline. Number-weighted size and distribution date was used. Lipid concentrations were determined by measuring total cholesterol using the Cholesterol E enzymatic assay kit from Wako Chemicals USA (Richmond, Va.). The morphology of LNP formulations containing LD-DEX was analyzed by cryogenic-transmission electron microscopy (cryoTEM).

Raw264.7 = assay: Pro-inflammatory cytokine expression in LPS-stimulated Raw264.7 cells (qRT-PCR); format: cell-based; conditions: LNP formulation at doses equivalent to 1, 3 or 10 μM dexamethasone, 24 hours, 10 ng/mL LPS, versus control LNP
Method: (§4) The graph depicts the expression of the cytokines IL-10 (top), TNFα (middle) and IL-6 (bottom) after 24 hours of incubation of the cells with the above components at doses equivalent to 1, 3 or 10 μM of dexamethasone, followed by stimulation by 10 ng/mL LPS overnight. Cytokine levels were measured by qRT-PCR and data was normalized to cells treated with control LNP without drug-lipid conjugates.
as §4, with “IL-10” for “IL-10 (top), TNFα (middle) and IL-6 (bottom)”, “1” for “1, 3”
(§5) Cultured macrophage cell lines J774.2 (FIG. 8) and Raw264.7 (FIG. 9A) were incubated with immunostimulant LPS and LNP with or without ricinoleyl-dexamethasone conjugate INT-D034/INT-D035. After 24 hours, cells were harvested and were analyzed for expression of pro-Inflammatory cytokines IL1β, TNFα and IL-6. RNA was isolated from the cells and levels of pro-inflammatory cytokines ILIβ, TNFα and IL6 were determined by qRT-PCR.

J774.2 = assay: Pro-inflammatory cytokine expression in LPS-stimulated macrophage cell line J774.2 (qRT-PCR); format: cell-based; conditions: LNP formulation at doses equivalent to 1, 3 or 10 μM dexamethasone, 24 hours, 10 ng/mL LPS, versus control LNP
Method: as §4, with “IL-1β” for “IL-10”, “lipopolysaccharide (LPS)” for “LPS”
as §5

[2] = Encapsulation efficiency / incorporation of pro-drug in LNP; format: physicochemical; conditions: for Encapsulation Efficiency (%): LNP containing 10 mol % conjugate, primary PC-lipid DMPC; for % Entrapment: LNP formulations containing pro-drugs (10 mol %, FIG. 6A)
Method: as §1, §2, §3

CD4+ T cells = assay: Mixed lymphocyte reaction (MLR) assay, BMDCs with allogeneic CD4+ T cells; format: cell-based, mice; conditions: LNP containing 10-99 mol % conjugate; BMDCs treated 48 hours, LPS 24 hours; 5:1 or 10:1 T-to-BMDC ratio; 3 days; flow cytometry
Method: Bone marrow derived dendritic cells (BMDCs) from C57Bl/6 male mice were first treated with LNP containing various mol % of the dexamethasone or calcitriol conjugates for 48 hours and then activated by incubation with LIPS for 24 hours. They were then harvested and mixed with CD4+ T cells isolated from Balb/cJ male mice (Jackson Laboratories) at 5:1 or 10:1 T-to-BMDC ratio.
Dexamethasone and calcitriol can tolerize antigen presenting cells (APCs). […] Bone marrow derived dendritic cells (BMDCs) from C57BI/6 male mice (Charles River) were first treated with LNP containing various mol % of dexamethasone or calcitriol conjugates for 48 hours and then activated by incubation with LPS for 24 hours. They were then harvested and mixed with CD4+ T cells isolated from Balb/cl male mice (Jackson Laboratories) at 5:1 or 10:1 T-to-BMDC ratio. The levels of T cells proliferation after 3 days were quantified using flow cytometry.

[3] = Dissociation of pro-drugs from LNP after incubation in human plasma (size exclusion chromatography, UPLC); format: in vitro ADME; conditions: 10 mol % in LNP, 2 hours, 37° C. (FIG. 6A)
Source text: The release of ricinoleyl-dexamethasone conjugates from LNP was examined using an assay involving human plasma, which contains lipoproteins as a lipid sink for lipid exchanges to occur. The plasma lacked active esterases that may digest the ricinoleyl-dexamethasone conjugates, which would in turn prevent the detection and monitoring of intact conjugates.
LNP formulations containing 10-99 mol % INT-D034, INT-D035, INT-D045, INT-D046, INT-0047, INT-D048 or INT-D049, INT-D050, INT-D051, INT-D053, INT-D083, INT-D085, INT-D086 or INT-D089 (see FIG. 3 and Example 7 for structures) were subjected to incubation in human plasma for 0, 2 or 24 hours at 37° C. at 1.2 mM total lipid. Size exclusion chromatography was performed to separate LNP from lipoproteins (1.5×27 cm Sepharose […] size exclusion column). Thirty fractions of 2 mL were collected and three volumes of isopropanol/methanol (1:1 v/v) were added to each fraction.
Drug-lipid conjugates were quantified by ultra high pressure liquid chromatography (UPLC) using a Water® Acquity™ UPLC system equipped with a photodiode array detector (PDA); Empower™ data acquisition software version 2.0 was used (Waters, USA). […] The method was run over 6 minutes with a column temperature of 55° C. and the analyte was measured by monitoring the PDA detector at a wavelength of 239 nm.

[4] = LNP formulations containing pro-drugs (10 mol %, FIG. 6A)
[5] = LNP, pro-drug concentration 10 %
[6] = LNP, pro-drug concentration 20 %
[7] = LNP, pro-drug concentration 80 %
[8] = LNP, pro-drug concentration 90 %
[9] = LNP, pro-drug concentration 99 %
[10] = LNP, pro-drug concentration 60 %

Compound | Particle Diameter (nm) [1] [nm] | Polydispersity index (PDI) [1] | PdI [1, 4] | Size of LNP [1, 4] | Encapsulation Efficiency (%) [2] [%] | % Entrapment [2] [%] | allogeneic T-cell proliferation (CD4+ T cells) | PdI [1, 5] | Size (nm) [1, 5] [nm] | PdI [1, 6] | Size (nm) [1, 6] [nm] | PdI [1, 7] | Size (nm) [1, 7] [nm] | PdI [1, 9] | Size (nm) [1, 9] [nm] | pro-drug remained in LNP [3] | other results
CCCCCCCC/C=C\CCCCCCCC(=O)O[C@@H](C/C=C\CCCCCCCCOC(=O)CCC(=O)OCC(=O)[C@@]1(O)[C@H](C)C[C@H]2[C@@H]3CCC4=CC(=O)C=C[C@]4(C)[C@@]3(F)[C@@H](O)C[C@@]21C)CCCCCC [INT-D035, 2-((8S,9R,10S,11S,13S,14S,16R,17R)-9-fluoro-11,17-dihydroxy-10,13,16-trimethyl-3-oxo-6,7,8,9,10,11,12,13,14,15,16,17-dodecahydro-3H-cyclopenta[a]phenanthren-17-yl)-2-oxoethyl ((R,Z)-12-(oleoyloxy)octadec-9-en-1-yl) succinate] | 67 | 0.03 | 0.11 | 64 | 100 | 99 | – | – | – | – | – | – | – | – | – | – | levels of pro-inflammatory cytokines (IL1β, TNFα, IL-6) (Raw264.7): reduced levels of pro-inflammatory cytokines in a dose-dependent manner; levels of pro-inflammatory cytokines (IL1β, TNFα, IL-6) (J774.2): reduced levels of pro-inflammatory cytokines in a dose-dependent manner
CCCCC/C=C\C/C=C\CCCCCCCC(=O)O[C@@H](C/C=C\CCCCCCCCOC(=O)CCC(=O)OCC(=O)[C@@]1(O)[C@H](C)C[C@H]2[C@@H]3CCC4=CC(=O)C=C[C@]4(C)[C@@]3(F)[C@@H](O)C[C@@]21C)CCCCCC [INT-D045, 2-((8S,9R,10S,11S,13S,14S,16R,17R)-9-fluoro-11,17-dihydroxy-10,13,16-trimethyl-3-oxo-6,7,8,9,10,11,12,13,14,15,16,17-dodecahydro-3H-cyclopenta[a]phenanthren-17-yl)-2-oxoethyl ((R,Z)-12-(linoleoyloxy)octadec-9-en-1-yl) succinate] | 68 | 0.03 | 0.03 | 64 | 99 | 100 | able to suppress allogeneic T-cell proliferation | 0.076 | 46 | 0.073 | 48 | 0.033 | 69 | 0.045 | 75 | – | PdI [1, 8]: 0.054; Size (nm) [1, 8]: 74 nm
CCCCCC[C@H](C/C=C\CCCCCCCCOC(=O)CCC(=O)OCC(=O)[C@@]1(O)[C@H](C)C[C@H]2[C@@H]3CCC4=CC(=O)C=C[C@]4(C)[C@@]3(F)[C@@H](O)C[C@@]21C)OC(C)=O [INT-D047, (R,Z)-12-acetoxyoctadec-9-en-1-yl (2-((8S,9R,10S,11S,13S,14S,16R,17R)-9-fluoro-11,17-dihydroxy-10,13,16-trimethyl-3-oxo-6,7,8,9,10,11,12,13,14,15,16,17-dodecahydro-3H-cyclopenta[a]phenanthren-17-yl)-2-oxoethyl) succinate] | 68 | 0.02 | 0.06 | 70 | 100 | 100 | – | – | – | – | – | – | – | – | – | ~40% | –
CCCCC/C=C\C/C=C\CCCCCCCC(=O)OC(CCCCCCCC)C(CCCCCCCC(=O)OCC(=O)[C@@]1(O)[C@H](C)C[C@H]2[C@@H]3CCC4=CC(=O)C=C[C@]4(C)[C@@]3(F)[C@@H](O)C[C@@]21C)OC(=O)CCCCCCC/C=C\C/C=C\CCCCC (stereo partly drawn) [INT-D086, 1-(2-((8S,9R,10S,11S,13S,14S,16R,17R)-9-Fluoro-11,17-dihydroxy-10,13,16-trimethyl-3-oxo-6,7,8,9,10,11,12,13,14,15,16,17-dodecahydro-3H-cyclopenta[a]phenanthren-17-yl)-2-oxoethoxy)-1-oxooctadecane-9,10-diyl (9Z,9′Z,12Z,12′4)-bis(octadeca-9,12-dienoate)] | – | – | 0.08 | 38 | – | 92 | – | 0.082 | 38 | 0.117 | 35 | 0.028 | 165 | 0.026 | 160 | over 90% | PdI [1, 10]: 0.036; Size (nm) [1, 10]: 82 nm
(1R,3S,2)-3-hydroxy-5-(2-((1R,3aS,7aR,E)-1-((R)-6-hydroxy-6-methylheptan-2-yl)-7a-methyloctahydro-4H-inden-4-ylidene)ethylidene)-4-methylenecyclohexyl (R,Z)-12-acetoxyoctadec-9-enoate and (1S,5R,Z)-5-hydroxy-3-(2-((1R,3aS,7aR,E)-1-((R)-6-hydroxy-6-methylheptan-2-yl)-7a-methyloctahydro-4H-inden-4-ylidene)ethylidene)-2-methylenecyclohexyl(RA-12-acetoxyoctadec-9-enoate [INT-D053] | – | – | – | – | – | – | able to suppress allogeneic T-cell proliferation | 0.081 | 54 | 0.052 | 56 | 0.029 | 106 | 0.018 | 98 | – | –
